From patent US7964531B2, “3-phenoxy-4-pyridazinol derivatives and herbicidal composition containing the same” (Mitsui Chemicals Agro, Inc., priority 2001, dated 2011)

Legend:
Type in all cases: in vivo
Conditions in all cases: wettable powder applied 3 days after transplanting, judged after 25 days
[1] = test system: Cyperus serotinus; assay: Test Example 1: herbicidal effects, paddy-field pot test
How it was run: (§1)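 Herbicidal effect and crop injury were rated 0 (0-10% inhibition) to 5 (91-100%) 25 days after treatment. Water-diluted wettable powder was applied to flooded greenhouse pots 3 days after transplanting 2.2-leaf rice. The pots held seeded weeds and sprouted Cyperus serotinus tubers.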

[2] = test system: Scirpus joncoides; assay: as above
How it was run: as §1

[3] = test system: annual broad-leaved weeds (Lindernia spp., Rotala indica); assay: as above
How it was run: as §1

[4] = test system: barnyardgrass (Echinochloa oryzicola Vasing.); assay: as above
How it was run: as §1

[5] = test system: transplanted paddy-field rice; assay: Test Example 1: crop injury against transplanted paddy-field rice
How it was run: as §1

Row | Structure (SMILES) | Herbicidal effects Cyperus serotinus ([1]; chemical dosage 10 g/a) | Herbicidal effects Scirpus joncoides ([2]; chemical dosage 10 g/a) | Herbicidal effects Broad leaf ([3]; chemical dosage 10 g/a) | Herbicidal effects Barnyard grass ([4]; chemical dosage 10 g/a) | Crop injury against transplanted rice ([5]; chemical dosage 10 g/a) | Herbicidal effects Cyperus serotinus ([1]; chemical dosage 12.5 g/a) | Herbicidal effects Cyperus serotinus ([1]; chemical dosage 25 g/a) | Herbicidal effects Scirpus joncoides ([2]; chemical dosage 12.5 g/a) | Herbicidal effects Scirpus joncoides ([2]; chemical dosage 25 g/a) | Herbicidal effects Broad leaf ([3]; chemical dosage 12.5 g/a) | Herbicidal effects Broad leaf ([3]; chemical dosage 25 g/a) | Herbicidal effects Barnyard grass ([4]; chemical dosage 12.5 g/a) | Herbicidal effects Barnyard grass ([4]; chemical dosage 25 g/a) | Crop injury against transplanted rice ([5]; chemical dosage 12.5 g/a) | Crop injury against transplanted rice ([5]; chemical dosage 25 g/a) | Herbicidal effects Cyperus serotinus ([1]; chemical dosage 20 g/a) | Herbicidal effects Scirpus joncoides ([2]; chemical dosage 20 g/a) | Herbicidal effects Broad leaf ([3]; chemical dosage 20 g/a) | Herbicidal effects Barnyard grass ([4]; chemical dosage 20 g/a) | Crop injury against transplanted rice ([5]; chemical dosage 20 g/a)
1 | Oc1cc(Cl)nnc1Oc1ccccc1C1CCC1 [Example 85] | 5 (Growth inhibition rate; 91 to 100%) | 3 (Growth inhibition rate; 51 to 70%) | 4 (Growth inhibition rate; 71 to 90%) | 2 (Growth inhibition rate; 31 to 50%) | 0 (Growth inhibition rate; 0 to 10%) |  |  |  |  |  |  |  |  |  |  |  |  |  |  | 
2 | Oc1cc(Cl)nnc1Oc1ccccc1C1CCCC1 [Example 88] |  |  |  |  |  | 5 (Growth inhibition rate; 91 to 100%) | 5 (Growth inhibition rate; 91 to 100%) | 4 (Growth inhibition rate; 71 to 90%) | 5 (Growth inhibition rate; 91 to 100%) | 4 (Growth inhibition rate; 71 to 90%) | 5 (Growth inhibition rate; 91 to 100%) | 0 (Growth inhibition rate; 0 to 10%) | 0 (Growth inhibition rate; 0 to 10%) | 0 (Growth inhibition rate; 0 to 10%) | 0 (Growth inhibition rate; 0 to 10%) |  |  |  |  | 
3 | COc1ccccc1Oc1nnc(Cl)cc1O [Example 121] |  |  |  |  |  | 5 (Growth inhibition rate; 91 to 100%) | 5 (Growth inhibition rate; 91 to 100%) | 3 (Growth inhibition rate; 51 to 70%) | 4 (Growth inhibition rate; 71 to 90%) | 5 (Growth inhibition rate; 91 to 100%) | 5 (Growth inhibition rate; 91 to 100%) | 2 (Growth inhibition rate; 31 to 50%) | 3 (Growth inhibition rate; 51 to 70%) | 0 (Growth inhibition rate; 0 to 10%) | 0 (Growth inhibition rate; 0 to 10%) |  |  |  |  | 
4 | CCOc1ccccc1Oc1nnc(Cl)cc1O [Example 122] | 5 (Growth inhibition rate; 91 to 100%) | 4 (Growth inhibition rate; 71 to 90%) | 5 (Growth inhibition rate; 91 to 100%) | 0 (Growth inhibition rate; 0 to 10%) | 0 (Growth inhibition rate; 0 to 10%) |  |  |  |  |  |  |  |  |  |  | 5 (Growth inhibition rate; 91 to 100%) | 5 (Growth inhibition rate; 91 to 100%) | 5 (Growth inhibition rate; 91 to 100%) | 0 (Growth inhibition rate; 0 to 10%) | 0 (Growth inhibition rate; 0 to 10%)
5 | CC(C)Oc1ccccc1Oc1nnc(Cl)cc1O [Example 123] | 4 (Growth inhibition rate; 71 to 90%) | 3 (Growth inhibition rate; 51 to 70%) | 5 (Growth inhibition rate; 91 to 100%) | 0 (Growth inhibition rate; 0 to 10%) | 0 (Growth inhibition rate; 0 to 10%) |  |  |  |  |  |  |  |  |  |  | 5 (Growth inhibition rate; 91 to 100%) | 4 (Growth inhibition rate; 71 to 90%) | 5 (Growth inhibition rate; 91 to 100%) | 1 (Growth inhibition rate; 11 to 30%) | 0 (Growth inhibition rate; 0 to 10%)
6 | Oc1cc(Cl)nnc1Oc1ccccc1OC(F)(F)F [Example 125] | 4 (Growth inhibition rate; 71 to 90%) | 3 (Growth inhibition rate; 51 to 70%) | 5 (Growth inhibition rate; 91 to 100%) | 1 (Growth inhibition rate; 11 to 30%) | 0 (Growth inhibition rate; 0 to 10%) |  |  |  |  |  |  |  |  |  |  | 5 (Growth inhibition rate; 91 to 100%) | 4 (Growth inhibition rate; 71 to 90%) | 5 (Growth inhibition rate; 91 to 100%) | 2 (Growth inhibition rate; 31 to 50%) | 0 (Growth inhibition rate; 0 to 10%)
7 | CSc1ccccc1Oc1nnc(Cl)cc1O [Example 129] |  |  |  |  |  | 4 (Growth inhibition rate; 71 to 90%) | 5 (Growth inhibition rate; 91 to 100%) | 3 (Growth inhibition rate; 51 to 70%) | 4 (Growth inhibition rate; 71 to 90%) | 5 (Growth inhibition rate; 91 to 100%) | 5 (Growth inhibition rate; 91 to 100%) | 1 (Growth inhibition rate; 11 to 30%) | 2 (Growth inhibition rate; 31 to 50%) | 0 (Growth inhibition rate; 0 to 10%) | 0 (Growth inhibition rate; 0 to 10%) |  |  |  |  | 
8 | Oc1cc(Cl)nnc1Oc1cccc(F)c1F [Example 154] | 5 (Growth inhibition rate; 91 to 100%) | 3 (Growth inhibition rate; 51 to 70%) | 5 (Growth inhibition rate; 91 to 100%) | 1 (Growth inhibition rate; 11 to 30%) | 0 (Growth inhibition rate; 0 to 10%) |  |  |  |  |  |  |  |  |  |  | 5 (Growth inhibition rate; 91 to 100%) | 5 (Growth inhibition rate; 91 to 100%) | 5 (Growth inhibition rate; 91 to 100%) | 2 (Growth inhibition rate; 31 to 50%) | 0 (Growth inhibition rate; 0 to 10%)
9 | Cc1cccc(Oc2nnc(Cl)cc2O)c1C1CC1 [Example 166] | 5 (Growth inhibition rate; 91 to 100%) | 5 (Growth inhibition rate; 91 to 100%) | 5 (Growth inhibition rate; 91 to 100%) | 0 (Growth inhibition rate; 0 to 10%) | 0 (Growth inhibition rate; 0 to 10%) |  |  |  |  |  |  |  |  |  |  | 5 (Growth inhibition rate; 91 to 100%) | 5 (Growth inhibition rate; 91 to 100%) | 5 (Growth inhibition rate; 91 to 100%) | 1 (Growth inhibition rate; 11 to 30%) | 0 (Growth inhibition rate; 0 to 10%)
10 | CC1CCc2cccc(Oc3nnc(Cl)cc3O)c21 (stereo not drawn) [Example 172] | 4 (Growth inhibition rate; 71 to 90%) | 5 (Growth inhibition rate; 91 to 100%) | 5 (Growth inhibition rate; 91 to 100%) | 5 (Growth inhibition rate; 91 to 100%) | 0 (Growth inhibition rate; 0 to 10%) |  |  |  |  |  |  |  |  |  |  | 5 (Growth inhibition rate; 91 to 100%) | 5 (Growth inhibition rate; 91 to 100%) | 5 (Growth inhibition rate; 91 to 100%) | 5 (Growth inhibition rate; 91 to 100%) | 0 (Growth inhibition rate; 0 to 10%)
11 | Oc1cc(Cl)nnc1Oc1cccc2c1CCCC2 [Example 179] | 5 (Growth inhibition rate; 91 to 100%) | 3 (Growth inhibition rate; 51 to 70%) | 4 (Growth inhibition rate; 71 to 90%) | 0 (Growth inhibition rate; 0 to 10%) | 0 (Growth inhibition rate; 0 to 10%) |  |  |  |  |  |  |  |  |  |  | 5 (Growth inhibition rate; 91 to 100%) | 4 (Growth inhibition rate; 71 to 90%) | 4 (Growth inhibition rate; 71 to 90%) | 1 (Growth inhibition rate; 11 to 30%) | 0 (Growth inhibition rate; 0 to 10%)
